{
  "source": "patent US5830697A",
  "about": "“P-glycoprotein mutant resistant to cyclosporin modulation” (The Board of Trustees of the Leland Stanford Junior …, priority 1997, dated 1998)",
  "assay_in_all_cases": "Growth inhibition (MTT) assay, with or without MDR modulators",
  "key": {"[1]": {"system": "MES-SA/DxP5002 (DxP) cells", "conditions": "for Level of resistance of DxP cells to the cytotoxin compared with parental Dx5 (in words) / Fold resistance: DxP cells; for Dx5/DxP, fold of resistance difference in DxP cells compared with parental Dx5 cells: DxP vs Dx5", "procedure": "Cells and Tissue Culture. […] Monolayer cultures of MES-SA cells and its variants were grown in McCoy's medium (Irvine Scientific, Santa Ana, Calif.) supplemented with 10% newborn calf serum (Gibco, Grand Island, N.Y.), 2 mM L-glutamine, and antibiotics(100 U/ml penicillin, 100 μg/ml streptomycin).\nGrowth Inhibition Assay. Approximately 8000 cells per well were seeded in 96 well plates and incubated with or without drugs for 72 hr at 37° C. in an atmosphere of 5% CO2. Growth inhibition was evaluated by the MTT colorimetric assay in triplicate or quadruplicate as previously described. The absorbance was measured with a ThermoMax microplate reader (Molecular Devices, Menlo Park, Calif.). […] The doubling times of MES-SA, D×5, and D×P were determined as previously described.\n(§1) Reversal of MDR by Modulators. […] The modulation ratio was obtained by comparing IC50 s in the presence and absence of modulators."}, "MES-SA cells": {"system": "MES-SA cells", "type": "cell-based, human", "conditions": "for IC50: Homo sapiens, read-out: IC50 of drug-sensitive MES-SA cells (values in parenthesis)", "procedure": "(§2) Cells and Tissue Culture. Details of the development and characterization of the human cell line MES-SA and its MDR variant MES-SA/Dx5 (D×5), which were derived from sarcoma elements of a uterine mixed Mullerian tumor, are described in Harker and Sikic (1985) Cancer Research 45:3810-3815. MES-SA/DxP5002 (DxP) cells were derived from Dx5.05 cells (D×5 cells selected and maintained at a DOX concentration of 0.5 μM) by step-wise selection in the presence of increasing DOX concentrations (from 40 nM up to 0.5 μM) and a constant PSC 833 concentration at 2 μM over a one-year period. Monolayer cultures of MES-SA cells and its variants were grown in McCoy's medium (Irvine Scientific, Santa Ana, Calif.) supplemented with 10% newborn calf serum (Gibco, Grand Island, N.Y.), 2 mM L-glutamine, and antibiotics(100 U/ml penicillin, 100 μg/ml streptomycin).\n(§3) Growth Inhibition Assay. Approximately 8000 cells per well were seeded in 96 well plates and incubated with or without drugs for 72 hr at 37° C. in an atmosphere of 5% CO2. Growth inhibition was evaluated by the MTT colorimetric assay in triplicate or quadruplicate as previously described. The absorbance was measured with a ThermoMax microplate reader (Molecular Devices, Menlo Park, Calif.). The IC50 (drug concentration resulting in 50% inhibition of MTT dye formation, compared to controls) was determined directly from semi-logarithmic dose-response curves. The doubling times of MES-SA, D×5, and D×P were determined as previously described.\nas §1"}, "MES-SA/Dx5 (Dx5) cells": {"system": "MES-SA/Dx5 (Dx5) cells", "type": "cell-based, human", "procedure": "as §2, §3, §1"}, "[2]": {"conditions": "no modulator, relative to MES-SA"}, "[3]": {"conditions": "MES-SA cells, no modulator, 72 hr MTT"}},
  "note": "Like-named read-outs stand apart in the source and are kept apart here. *1 amine or outer side, *2 acyl side, *3 side chain or, on linkers, in order; H or OH if unused. Where a SMILES comes first, the peptide text is derived from it. Bridges are numbered along the chain shown (N, C = ends). Roman numbers before positions name the chains, in order. [ ]: non-standard residue; d: D form. Actinocin(9to1) = Cc1c2oc3c(C)ccc(C(=O)[*:1])c3nc-2c(C(=O)[*:2])c(N)c1=O; NMeV = CN[C@H](C(=O)O)C(C)C; Sar = CNCC(=O)O",
  "data": [
    {"smiles": "COc1cc2c(c(OC)c1OC)-c1ccc(OC)c(=O)cc1[C@@H](NC(C)=O)CC2", "note": "[Colchicine]", "values": [
      {"measurement": "Level of resistance of DxP cells to the cytotoxin compared with parental Dx5 (in words)", "setting": "[1]", "value": "high levels of resistance"}
    ]},
    {"smiles": "CC(=O)O[C@H]1C(=O)[C@@]2(C)[C@H]([C@H](OC(=O)c3ccccc3)[C@]3(O)C[C@H](OC(=O)[C@H](O)[C@@H](NC(=O)c4ccccc4)c4ccccc4)C(C)=C1C3(C)C)[C@]1(OC(C)=O)CO[C@@H]1C[C@@H]2O", "note": "[Paclitaxel]", "values": [
      {"measurement": "Level of resistance of DxP cells to the cytotoxin compared with parental Dx5 (in words)", "setting": "[1]", "value": "high levels of resistance"},
      {"measurement": "Fold resistance", "setting": "[1]; +2 μM PSC 833", "value": 5, "unit": "fold"},
      {"measurement": "Fold resistance", "setting": "[1]; +3 μM cyclosporin A", "value": 38, "unit": "fold"},
      {"measurement": "Fold resistance", "setting": "[1]; +6 μM Verapamil", "value": 44, "unit": "fold"},
      {"measurement": "Fold resistance", "setting": "[1]; [2]", "value": 100, "unit": "fold"},
      {"measurement": "Dx5/DxP, fold of resistance difference in DxP cells compared with parental Dx5 cells", "setting": "[1]", "value": 2, "unit": "fold"},
      {"measurement": "IC50", "setting": "MES-SA cells; MES-SA cells, 72 hr MTT", "value": 1, "unit": "nM"},
      {"measurement": "Fold resistance", "setting": "MES-SA cells; MES-SA cells, +2 μM PSC 833", "value": "0.3-1 fold"},
      {"measurement": "Fold resistance", "setting": "MES-SA cells; MES-SA cells, +3 μM cyclosporin A", "value": "0.5-1 fold"},
      {"measurement": "Fold resistance", "setting": "MES-SA cells; MES-SA cells, +6 μM Verapamil", "value": "0.3-1 fold"},
      {"measurement": "Fold resistance", "setting": "MES-SA cells; [3]", "value": 1, "unit": "fold"},
      {"measurement": "Fold resistance", "setting": "MES-SA/Dx5 (Dx5) cells; +2 μM PSC 833", "value": 1, "unit": "fold"},
      {"measurement": "Fold resistance", "setting": "MES-SA/Dx5 (Dx5) cells; +3 μM cyclosporin A", "value": 13, "unit": "fold"},
      {"measurement": "Fold resistance", "setting": "MES-SA/Dx5 (Dx5) cells; +6 μM Verapamil", "value": 25, "unit": "fold"},
      {"measurement": "Fold resistance", "setting": "MES-SA/Dx5 (Dx5) cells; [2]", "value": 175, "unit": "fold"}
    ]},
    {"smiles": "Cc1c2oc3c(C)ccc(C(=O)N[C@@H]4C(=O)N[C@H](C(C)C)C(=O)N5CCC[C@H]5C(=O)N(C)CC(=O)N(C)[C@@H](C(C)C)C(=O)O[C@@H]4C)c3nc-2c(C(=O)N[C@@H]2C(=O)N[C@H](C(C)C)C(=O)N3CCC[C@H]3C(=O)N(C)CC(=O)N(C)[C@@H](C(C)C)C(=O)O[C@@H]2C)c(N)c1=O", "note": "[D actinomycin, dactinomycin] (I: T[dV]P[Sar][NMeV] / II: T[dV]P[Sar][NMeV]; ester I:1-I:C, II:1-II:C; linker I:N-II:N via Actinocin(9to1))", "values": [
      {"measurement": "Level of resistance of DxP cells to the cytotoxin compared with parental Dx5 (in words)", "setting": "[1]", "value": "completely restored"},
      {"measurement": "Fold resistance", "setting": "[1]; [2]", "value": 1, "unit": "fold"},
      {"measurement": "Dx5/DxP, fold of resistance difference in DxP cells compared with parental Dx5 cells", "setting": "[1]", "value": 183, "unit": "fold"},
      {"measurement": "IC50", "setting": "MES-SA cells; MES-SA, 72 h", "value": 0.3, "unit": "nM"},
      {"measurement": "Fold resistance", "setting": "MES-SA cells; [3]", "value": 1, "unit": "fold"},
      {"measurement": "Fold resistance", "setting": "MES-SA/Dx5 (Dx5) cells; [2]", "value": 183, "unit": "fold"}
    ]},
    {"smiles": "CCC1=C[C@@H]2CN(C1)Cc1c([nH]c3ccccc13)[C@@](C(=O)OC)(c1cc3c(cc1OC)N(C)[C@H]1[C@@](O)(C(=O)OC)[C@H](OC(C)=O)[C@]4(CC)C=CCN5CC[C@]31[C@@H]54)C2", "note": "[vinorelbine]", "values": [
      {"measurement": "Fold resistance", "setting": "[1]; [2]", "value": 2, "unit": "fold"},
      {"measurement": "Dx5/DxP, fold of resistance difference in DxP cells compared with parental Dx5 cells", "setting": "[1]", "value": 9, "unit": "fold"},
      {"measurement": "IC50", "setting": "MES-SA cells; MES-SA cells, 72 hr MTT", "value": 60, "unit": "nM"},
      {"measurement": "Fold resistance", "setting": "MES-SA cells; [3]", "value": 1, "unit": "fold"},
      {"measurement": "Fold resistance", "setting": "MES-SA/Dx5 (Dx5) cells; [2]", "value": 17, "unit": "fold"}
    ]},
    {"smiles": "CC[C@]1(O)C[C@H]2CN(CCc3c([nH]c4ccccc34)[C@@](C(=O)OC)(c3cc4c(cc3OC)N(C=O)[C@H]3[C@@](O)(C(=O)OC)[C@H](OC(C)=O)[C@]5(CC)C=CCN6CC[C@]43[C@@H]65)C2)C1", "note": "[Vincristine]", "values": [
      {"measurement": "Fold resistance", "setting": "[1]; +2 μM PSC 833", "value": 7, "unit": "fold"},
      {"measurement": "Fold resistance", "setting": "[1]; +6 μM Verapamil", "value": 3, "unit": "fold"},
      {"measurement": "Fold resistance", "setting": "[1]; [2]", "value": 8, "unit": "fold"},
      {"measurement": "Dx5/DxP, fold of resistance difference in DxP cells compared with parental Dx5 cells", "setting": "[1]", "value": 25, "unit": "fold"},
      {"measurement": "IC50", "setting": "MES-SA cells; MES-SA cells, 72 hr MTT", "value": 2, "unit": "nM"},
      {"measurement": "Fold resistance", "setting": "MES-SA cells; MES-SA cells, +2 μM PSC 833", "value": 0.7, "unit": "fold"},
      {"measurement": "Fold resistance", "setting": "MES-SA cells; MES-SA cells, +6 μM Verapamil", "value": "0.3-1 fold"},
      {"measurement": "Fold resistance", "setting": "MES-SA cells; [3]", "value": 1, "unit": "fold"},
      {"measurement": "Fold resistance", "setting": "MES-SA/Dx5 (Dx5) cells; +2 μM PSC 833", "value": 1, "unit": "fold"},
      {"measurement": "Fold resistance", "setting": "MES-SA/Dx5 (Dx5) cells; +6 μM Verapamil", "value": 7, "unit": "fold"},
      {"measurement": "Fold resistance", "setting": "MES-SA/Dx5 (Dx5) cells; [2]", "value": 199, "unit": "fold"}
    ]}
  ]
}
